Measured values taken from US8377685B2, “Microfluidic device having stable static gradient for analyzing chemotaxis” (priority 2007, dated 2013).
Entries after “also recorded” stand apart in the source; their conditions may differ.

System: primary human neutrophils
Type: cell-based
Procedure: (§1) Each channel was used of one of four different conditions under investigation: 1) Media control, 2) uniform chemo-attractant, 3) chemo-attractant gradient and 4) chemo-attractant gradient with inhibitor. For conditions 1 and 3 each channel network was wick-filled with EGM2MV cell culture media via the source input port. For condition 2 the channel network was wick-filled with EGM2MV cell culture media containing 10 nM formyl-Met-Leu-Phe (fMLP, Sigma-Aldrich). For condition 4 the channel network was wick-filled with EGM2MV cell culture media containing 5 μM Latrunculin B (Sigma-Aldrich). Next, for conditions 3 and 4, a 1.2 μL drop of 1 μM fMLP was added to the source input using a handheld pipette. For condition 4 the fMLP solution also contained Latrunculin B at the same concentration as the media to ensure a uniform concentration of the inhibitor during the study. This volume flowed into the source volume via passive pumping. Lastly, for all four conditions, a 1.5 μL drop of freshly isolated primary neutrophils at roughly at a concentration of roughly 5,000 cells/μL were added to the cell addition port.
as §1, with “Human neutrophil cell culture media and chemo-attractant solution were prepared using conventional protocols. (See, Nuzzi P A at al., Analysis of neutrophil chemotaxis, Methods in Molecular Biology 370:23-26, 2007). Primary human neutrophils were acquired from donors under approved protocol. (See University of Wisconsin Institutional Review Board and National Institutes of Health Protection concerning protection of human subjects regulations). Four channel networks in a polystyrene device were prepared. Each” for “Each”, “used to test” for “used of”, “different conditions:” for “different conditions under investigation:”

## C/C1=C/C(=O)O[C@@H]2C[C@@H](CC[C@H](C)/C=C\CC1)O[C@@](O)([C@@H]1CSC(=O)N1)C2 [Latrunculin B]
fMLP gradient with uniform 5 μM Latrunculin B, 52 minutes
  direction of displacement vectors of cells (preference for migrating up the fMLP gradient): abolished
fMLP gradient with uniform 5 μM Latrunculin B, cells tracked over 52 minutes
  mean total displacement of cells (migration up an fMLP gradient): strongly inhibited

## formyl-Met-Leu-Phe [fMLP]
  direction of displacement vectors of cells: slight preference for migrating up the channel; also recorded: strong preference for migrating in the direction of increasing concentration of the gradient
  mean total displacement of cells: migrate further; also recorded: migrated further still
